Where two headings read alike, the source gives them in different places.
How the values were obtained:
[1] = Stability in liver microsomes (Example 21), cynomolgus monkey; type: in vitro ADME; conditions: male, pH 7.4, 0.5 mg/mL protein
Description: (§1) General Procedure. Briefly, test compounds (final concentration 1 μM) were incubated in duplicate with liver microsomes from male animals of the indicated species (final protein concentration 0.5 mg/mL) in 50 mM sodium phosphate buffer (pH 7.4) with or without NADPH (1 mM). Total incubation volume was 500 μL. At 0, 5, 15, 30, and 60 min, aliquots of 50 μL were withdrawn, quenched with acetonitrile (150 μL), and analyzed for parent compound remaining using a fit-for-purpose LC-MS/MS method. Intrinsic clearance and half-life were calculated. Clearance values below zero were rounded to zero.

[2] = Stability in liver microsomes (Example 21), beagle dog; type: in vitro ADME; conditions: male, pH 7.4, 0.5 mg/mL protein
Description: as §1

[3] = target: serotonin transporter (SERT) (Homo sapiens (Human), UniProt P31645); test: SERT competition radioligand binding ([3H]imipramine); conditions: for Ki: Human recombinant (CHO cells), 2.0 nM [3H]imipramine
Description: Disclosed compounds were tested for their binding affinity at the serotonin transporter (SERT) using a competition radioligand binding assay (Eurofins Cerep). Assay conditions are described in Table 16 below.

[4] = target: recombinant human NMDA receptor (GRIN1/GRIN2B) (Homo sapiens (Human), UniProt Q05586+Q13224); test: Unblocking kinetics at the NMDA receptor in Xenopus laevis oocytes (two-electrode voltage clamp); type: cell-based; conditions: for Unblocking T1/2 ± SEM: compounds applied at 3×IC50, -70 mV, n ≥ 5
Chain of recombinant human NMDA receptor (GRIN1/GRIN2B) (Q13224 whole entry, looked up, other chains not shown): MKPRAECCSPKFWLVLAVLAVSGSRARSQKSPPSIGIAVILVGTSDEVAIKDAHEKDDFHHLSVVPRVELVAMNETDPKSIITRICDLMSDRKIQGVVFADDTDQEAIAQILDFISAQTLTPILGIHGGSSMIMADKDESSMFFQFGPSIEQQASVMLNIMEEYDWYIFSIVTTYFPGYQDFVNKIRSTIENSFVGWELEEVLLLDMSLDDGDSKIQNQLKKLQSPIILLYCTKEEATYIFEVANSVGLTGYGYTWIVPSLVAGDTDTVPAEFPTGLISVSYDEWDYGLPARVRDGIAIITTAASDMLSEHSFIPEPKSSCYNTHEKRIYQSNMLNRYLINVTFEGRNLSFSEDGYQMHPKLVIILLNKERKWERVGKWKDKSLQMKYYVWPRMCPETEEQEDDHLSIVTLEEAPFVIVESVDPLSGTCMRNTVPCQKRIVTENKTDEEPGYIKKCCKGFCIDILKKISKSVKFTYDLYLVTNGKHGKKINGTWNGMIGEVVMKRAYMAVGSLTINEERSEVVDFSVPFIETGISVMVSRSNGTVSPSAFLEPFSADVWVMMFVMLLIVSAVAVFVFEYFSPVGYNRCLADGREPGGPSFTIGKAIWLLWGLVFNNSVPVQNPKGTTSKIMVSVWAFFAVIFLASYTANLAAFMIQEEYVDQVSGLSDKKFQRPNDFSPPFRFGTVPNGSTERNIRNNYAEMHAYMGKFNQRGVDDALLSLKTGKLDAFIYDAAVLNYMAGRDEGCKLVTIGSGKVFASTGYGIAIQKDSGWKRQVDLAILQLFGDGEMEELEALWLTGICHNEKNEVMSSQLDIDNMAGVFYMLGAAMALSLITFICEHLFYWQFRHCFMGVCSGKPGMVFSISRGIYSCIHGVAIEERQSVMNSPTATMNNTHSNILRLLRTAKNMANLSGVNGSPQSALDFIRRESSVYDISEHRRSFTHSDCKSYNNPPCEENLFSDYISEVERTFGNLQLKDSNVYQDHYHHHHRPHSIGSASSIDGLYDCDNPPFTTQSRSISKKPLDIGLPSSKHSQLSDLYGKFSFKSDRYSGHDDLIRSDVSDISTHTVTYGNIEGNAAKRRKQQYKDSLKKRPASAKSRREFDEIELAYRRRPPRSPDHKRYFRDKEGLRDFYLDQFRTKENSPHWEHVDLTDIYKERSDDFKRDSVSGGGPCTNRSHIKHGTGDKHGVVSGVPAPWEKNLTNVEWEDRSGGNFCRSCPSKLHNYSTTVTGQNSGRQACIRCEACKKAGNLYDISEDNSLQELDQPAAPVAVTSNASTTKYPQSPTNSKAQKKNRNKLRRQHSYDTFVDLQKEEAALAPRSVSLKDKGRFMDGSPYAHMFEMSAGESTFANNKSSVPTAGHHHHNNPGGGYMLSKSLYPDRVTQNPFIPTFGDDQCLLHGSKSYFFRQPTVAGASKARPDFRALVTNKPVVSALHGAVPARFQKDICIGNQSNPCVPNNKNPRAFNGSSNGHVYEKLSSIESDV
Description: Compounds 2R, 2S, and 2-(2-fluorophenyl)-2-(methylamino)cyclohexan-1-one 2-F-DCK were tested for unblocking kinetics at the NMDA receptor in Xenopus laevis oocytes expressing recombinant human NMDA receptor (GRIN1/GRIN2B) (Table 22).
Experimental Procedure. Oocytes were harvested from adult Xenopus laevis and incubated in 96 well plates for two to four days prior to recordings. Plasmids containing cDNA encoding for human NMDA receptor subunits GRIN1 and GRIN2B were transcribed using the mMessage mMachine T7 transcription kit (Ambion, USA). The Roboocyte automated injection system was used for injection of cRNA coding for hNMDA receptor subunits at a concentration of 100 ng/μL per subunit. Oocytes were clamped to a holding potential of −70 mV and induced currents after compound application were sampled at 200 Hz at room temperature. Agonist induced currents were recorded with a two-electrode voltage clamp. To determine the unblocking kinetics, glutamate and glycine (3 and 10 μM, respectively) were applied to the oocytes and the current recorded for 90 s. Then, compounds were applied at 3×IC50 for 120 s and the currents recorded.

[5] = Comparative oral pharmacokinetics of 2R, 2S and 2-F-DCK in mice; type: in vivo, C57BL/6 mice; conditions: 10 mg/kg po; for Cmax / half-life / AUC(0-t): male, C57BL/6; for half-life: read-out: t1/2 (po); for AUC(0-t): read-out: AUC0-last (po) (converted)
Description: Animals. Male C57BL/6 mice were used in these studies. Aminals were randomly assigned to treatment groups and were fasted for 4 h before dosing.
Drugs. Test compounds were dissolved in a vehicle consisting of normal saline, They were then administered orally (po) at a dose of 10 mg/kg (calculated based on freebase) and at a volume of 10 mL/kg body weight.
Sample Collection and Bioanalysis. Blood samples (approximately 60 μL) were collected under light isoflurane anesthesia (Surgivet®) from the retro orbital plexus at 0.08, 0.25, 0.5, 1, 2, 4, 8, and 24 h (4 animals per time point). Immediately after blood collection, plasma was harvested by centrifugation at 4,000 rpm for 10 min at 4° C. and samples were stored at −70±10° C. until bioanalysis. Following blood collection, animals were immediately sacrificed, the abdominal vena-cava was cut open, and the whole body was perfused from the heart using 10 mL of normal saline, and brain samples were collected from all animals. After isolation, brain samples were rinsed three times in ice-cold normal saline (for 5-10 seconds/rinse using ˜5-10 mL normal saline in disposable petri dish for each rinse) and dried on blotting paper. Brain samples were homogenized using ice-cold phosphate-buffered saline (pH 7.4). Total homogenate volume was three times the tissue weight. All homogenates were stored at −70±10° C. until bioanalysis. For bioanalysis, 25 μL aliquots of plasma/brain study samples or spiked plasma/brain calibration standards were added to individual pre-labeled micro-centrifuge tubes followed by 100 μL of an internal standard solution (glipizide, 500 ng/mL in acetonitrile) except for blanks, where 100 μL of acetonitrile was added. Samples were vortexed for 5 minutes and then centrifuged for 10 minutes at 4,000 rpm at 4° C. Following centrifugation, 100 μL of each clear supernatant was transferred to a 96 well plate and analyzed with a fit-for-purpose LC-MS/MS method, with authentic samples of each analyte used for calibration and identification.
Data Analysis. Pharmacokinetic parameters were estimated using the non-compartmental analysis tool of Phoenix® WinNonlin software (Ver 8.0).

[6] = Stability in liver microsomes (Example 21), Gottingen minipig; type: in vitro ADME; conditions: male, pH 7.4, 0.5 mg/mL protein
Description: as §1

[7] = Stability in liver microsomes (Example 21), SD rat; type: in vitro ADME; conditions: male, pH 7.4, 0.5 mg/mL protein
Description: as §1

**Q.** What does the source list for `CN[C@@]1(c2ccc(F)cc2)CCCCC1=O` [Compound 2R, (R)-2-(4-fluorophenyl)-2(methylamino)cyclohexan-1-one]?
**A.** microsomal CLint at 1 μM [1]: 9.5 µL/min/mg; microsomal CLint at 1 μM [2]: 10.5 µL/min/mg; Ki [3]: 6.2 µM; SERT binding potency relative to 2S (more potent) ([3]; human recombinant SERT): ~2 fold; half-life for unblocking compared to 2-F-DCK (in words) [4]: much shorter half-life for unblocking; Unblocking T1/2 ± SEM [4]: 22.7 ± 2.3 s; Cmax ([5]; mouse brain): 3280 ng/g; half-life ([5]; mouse brain): 2.97 h; Cmax ([5]; mouse plasma): 1180 ng/mL; AUC(0-t) ([5]; mouse plasma): 1120 ng·h/mL; half-life ([5]; mouse plasma): 1.38 h; AUC0-last (po) ([5]; mouse brain): 200464 ng·min/g; microsomal CLint at 1 μM [6]: 16.4 µL/min/mg; microsomal CLint at 1 μM [7]: 16.2 µL/min/mg

**Q.** For `CN[C@]1(c2ccc(F)cc2)CCCCC1=O` [Compound 2S, (S)-2-(4-fluorophenyl)-2-(methylamino)cyclohexan-1-one], which microsomal CLint at 1 μM [1] is on record?
**A.** The microsomal CLint at 1 μM was 15.3 µL/min/mg.

**Q.** What about the microsomal CLint at 1 μM [2] of the same molecule?
**A.** The microsomal CLint at 1 μM was 7.3 µL/min/mg.

**Q.** And the Ki [3]?
**A.** The Ki was 12 µM.

**Q.** And the “half-life for unblocking compared to 2-F-DCK (in words)” value [4]?
**A.** The value was “much shorter half-life for unblocking”.

**Q.** What about the “Unblocking T1/2 ± SEM” value [4] of the same molecule?
**A.** The value was 27.0 ± 6.1 s.

**Q.** What about the Cmax ([5]; mouse brain) of the same molecule?
**A.** The Cmax was 3540 ng/g.

**Q.** What about the half-life ([5]; mouse brain) of the same molecule?
**A.** Its half-life is 2.18 h.

**Q.** What about the Cmax ([5]; mouse plasma) of the same molecule?
**A.** The Cmax was 1390 ng/mL.

**Q.** What about the AUC(0-t) ([5]; mouse plasma) of the same molecule?
**A.** Its AUC(0-t) is 940 ng·h/mL.

**Q.** What about the half-life ([5]; mouse plasma) of the same molecule?
**A.** Its half-life is 1.48 h.

**Q.** And the “AUC0-last (po)” value ([5]; mouse brain)?
**A.** Its value is 123388 ng·min/g.

**Q.** And the microsomal CLint at 1 μM [6]?
**A.** Its microsomal CLint at 1 μM is 20.3 µL/min/mg.

**Q.** What about the microsomal CLint at 1 μM [7] of the same molecule?
**A.** The microsomal CLint at 1 μM was 14.1 µL/min/mg.
